Experimental data as given in patent US20130281398A1, “TREATMENT OF DISEASES BY EPIGENETIC REGULATION” (RVX Therapeutics Inc., priority 2012, published 2013).

Assays:
c-myc = assay: Inhibition of c-myc expression (mRNA, real-time PCR) in MV4-11 cells; assay type: cell-based; design: key: Active: Compounds with an IC50 value less than 30 uM were deemed to be active; settings: c-myc mRNA in human AML MV4-11 cells, 3 hours incubation
Protocol: MV4-11 cells (2.5×10^4 cells) were plated in 96 well U-bottom plates with test compound or DMSO (0.1%), and incubated for 3 hours at 37° C. Cells were then harvested by centrifugation, lysed, and mRNA was isolated using the mRNA catcher plus kit (Invitrogen). Reverse transcription of the mRNA and duplex amplification of the c-myc and cyclophilin cDNAs was performed using the RNA Ultrasense kit (Invitrogen) and a ViiA7 real-time PCR machine (Applied Biosystems). IC50 values were determined from a dose response curve.

Brd4 bromodomain 1 = target: T1, Brd4 bromodomain 1 (Homo sapiens, UniProt O60885); assay: TR-FRET inhibition of tetra-acetylated histone H4 binding to Brd4 bromodomain 1; settings: tetra-acetylated histone H4 peptide and Brd4 bromodomain 1, 2 hours at room temperature
T1 construct: Illustrative results with the first bromodomain of Brd4; made in house; host or cells: E. coli BL21(DE3)
Protocol: Proteins were cloned and overexpressed with a N-terminal 6×His tag, then purified by nickel affinity followed by size exclusion chromatography. Briefly, E. coli BL21(DE3) cells were transformed with a recombinant expression vector encoding N-terminally Nickel affinity tagged bromodomains from Brd2, Brd3, Brd4. Cell cultures were incubated at 37° C. with shaking to the appropriate density and induced overnight with IPTG. The supernatant of lysed cells was loaded onto Ni-IDA column for purification. Eluted protein was pooled, concentrated and further purified by size exclusion chromatography. Fractions representing monomeric protein are pooled, concentrated, aliquoted, and frozen at −80° C. for use in subsequent experiments.
Binding of tetra-acetylated histone H4 and BET bromodomains was confirmed by a Time Resolved Fluorescence Resonance Energy Transfer (TR-FRET) method. N-terminally His-tagged bromodomains (200 nM) and biotinylated tetra-acetylated histone H4 peptide (25-50 nM, Millipore) were incubated in the presence of Europium Cryptate-labeled streptavidin (Cisbio Cat. #610SAKLB) and XL665-labeled monoclonal anti-His antibody (Cisbio Cat. #61 HISXLB) in a white 96 well microtiter plate (Greiner). For inhibition assays, serially diluted test compound was added to these reactions in a 0.2% final concentration of DMSO. Final buffer concentrations were 30 mM HEPES pH 7.4, 30 mM NaCl, 0.3 mM CHAPS, 20 mM phosphate pH 7.0, 320 mM KF, 0.08% BSA). After 2 hours incubation at room temperature, the fluorescence by FRET was measured at 665 and 620 nm by a SynergyH4 plate reader (Biotek). The binding inhibitory activity was shown by a decrease in 665 nm fluorescence relative to 620 nm. IC50 values were determined from a dose response curve.

Human AML MV-4-11 cells = assay: Inhibition of cell proliferation in human AML MV-4-11 cells; assay type: cell-based; design: key: Active: Compounds with an IC50 value less than 30 uM were deemed to be active; settings: 72 hours, CellTiter Aqueous One
Protocol: MV4-11 cells: 96-well plates were seeded with 5×10^4 cells per well of exponentially growing human AML MV-4-11 (CRL-9591) cells and immediately treated with two-fold dilutions of test compounds, ranging from 30 μM to 0.2 μM. Triplicate wells were used for each concentration, as well as a media only and three DMSO control wells. The cells and compounds were incubated at 37° C., 5% CO2 for 72 hours before adding 20 μL of the CellTiter Aqueous One Solution (Promega) to each well and incubating at 37° C., 5% CO2 for an additional 3-4 hours. The absorbance was taken at 490 nm in a spectrophotometer and the percentage of proliferation relative to DMSO-treated cells was calculated after correction from the blank well. IC50 were calculated using the GraphPad Prism software.

IL-6 = settings: in vivo; cited from earlier work
[1] = tested on: bacterial-induced inflammation and sepsis; settings: murine model; Lamotte et al. (2012); cited from earlier work
[2] = tested on: NUT (nuclear protein in testis) midline carcinoma (NMC); settings: murine xenograft models of NMC; Filippakopoulos et al. (2010); cited from earlier work
multiple myeloma = settings: associated with cell cycle arrest and cellular senescence, Delmore et al. (2011); cited from earlier work

| FRET activity (<50 uM) (Brd4 bromodomain 1) | Compound | c-myc activity (<30 uM) (c-myc) | cell proliferation activity (<30 uM) (Human AML MV-4-11 cells) | IL-6 expression (IL-6) | bacterial-induced inflammation and sepsis [1] | antitumor activity [2] | antiproliferative effect (multiple myeloma) |
| --- | --- | --- | --- | --- | --- | --- | --- |
| Active | COc1cc(OC)c2c(=O)[nH]c(-c3cc(C)c(CNC(C)=O)c(C)c3)nc2c1 [Example 32, N-(4-(5,7-dimethoxy-4-oxo-3,4-dihydroquinazolin-2-yl)-2,6-dimethylbenzyl)acetamide] | Inactive | Inactive | – | – | – | – |
| Active | COc1cc(OC)c2c(=O)[nH]c(-c3cc(C)c(OCCNC(C)C)c(C)c3)nc2c1 [Example 38, 2-(4-(2-(isopropylamino)ethoxy)-3,5-dimethylphenyl)-5,7-dimethoxyquinazolin-4(3H)-one] | Active | Active | – | – | – | – |
| – | COc1cc2c(cc1-c1c(C)noc1C)ncc1[nH]c(=O)n([C@H](C)c3ccccn3)c12 [I-BET151] | – | – | decrease IL-6 expression | suppress bacterial-induced inflammation and sepsis | – | – |
| – | Cc1sc2c(c1C)C(c1ccc(Cl)cc1)=N[C@@H](CC(=O)OC(C)(C)C)c1nnc(C)n1-2 [JQ1] | – | – | – | – | potent antitumor activity | potent antiproliferator |
